Results on 5 molecules are retold here after US20020119136A1, “Antimicrobial peroxidase compositions” (Novozymes A/S, priority 1996, published 2002).

One test deals with P. fluorescens. The settings on record: rCIP 3 POXU/ml, enhancing agent 5 mM, 15 min, pH 6.0, 40 C; for bactericidal activity of rCIP with the enhancing agent: glucose oxidase/glucose or 5 mM H2O2, 10^4 cfu/ml.
The test system of test [1] is Staphylococcus aureus ATCC 25923. The experiment in a line: Antibacterial activity of rCIP and KI against S. aureus (Malthus, 2^3 factorial design). The class given is cell-based. The settings on record: components present at rCIP 0.5 POXU/ml, H2O2 0.5 mM, KI 0.5 mM; 15 min, 40 C, pH 6.0; untreated 2.9*10^8. Here is the method:
(§1) The antibacterial activity of rCIP was tested in phosphate buffer (pH 6.0) against Pseudomonas aeruginosa ATCC 10146 and Staphylococcus aureus ATCC 25923 with potassium iodide as electron donor, and hydrogen peroxide was added as electron acceptor. The cells (approximately 10^7 cfu/ml) were incubated with enzyme for 15 min at 40?C., and the experiment was carried out using a 2^3 factorial design reproduced two times. The bactericidal activity was determined by incubation in Malthus.

Test [2] deals with Pseudomonas aeruginosa ATCC 10146. The test can be described thus: Antibacterial activity of rCIP and KI against P. aeruginosa (Malthus, 2^3 factorial design). Type of test: cell-based. The settings on record: components present at rCIP 0.5 POXU/ml, H2O2 0.5 mM, KI 0.5 mM; 15 min, 40 C, pH 6.0; approx 10^7 cfu/ml; untreated 1.7*10^7. Here is the method:
as §1

Procedure for P. fluorescens: In order to avoid interference with substrate components, the experiment was carried out in a buffer instead of in a growth substrate.
The bactericidal activity was determined by plate counting and by incubation in Malthus. The detection times measured by the Malthus instrument were converted to cfu/ml by a standard curve.
Indirect Malthus measurements were used when enumerating total survival cells (Malthus Flexi M2060, Malthus Instrument Limited). 3 ml of growth medium was transferred to the outer chamber of the indirect Malthus cells, and 0.5 ml of sterile KOH (0.1 M) was transferred to the inner chamber. The cell suspensions were after enzyme treatment transferred to the outer chamber of the Malthus cell. As cells are growing in the outer chamber they produce CO2 which will dissolve in the KOH in the inner chamber and thereby change the conductance of the KOH. The amount of CO2 formed by the respiring cells surviving the enzyme treatment was used for estimating the number of viable cells. When the conductance change is measurable by the Malthus, a detection time (dt) will be recorded. The dt's were converted to colony counts by use of a calibration curve relating cfu/ml to dt (FIG. 1).

Turning to `O=C(O)CCN1c2ccccc2Sc2ccccc21` [PPT, 10-phenothiazine propionic acid], the “bactericidal activity of rCIP with the enhancing agent” value (“bactericidal activity of rCIP” for short) with P. fluorescens is given as “slight bactericidal activity”.
`N#C[S-].[Na+]` [NaSCN, sodium thiocyanate]: the “bactericidal activity of rCIP” value in the test with P. fluorescens is “statistical significant bactericidal activity”.
On to `[I-].[K+]` [KI, potassium iodide], for which the bactericidal activity in the test with P. fluorescens (H2O2 source, by plate counts and Malthus) is reported as 100%. The “bactericidal activity of rCIP” value with P. fluorescens is given as “statistical significant bactericidal activity”. In addition, the results for the survivors in test [1] and in test [2] were 2.0*10^8 cfu/ml and 2.1*10^7 cfu/ml, respectively.
As for `OO` [H2O2, hydrogen peroxide], the survivors in test [1] was 1.3*10^8 cfu/ml; in test [2], 1.2*10^7 cfu/ml.

B1: rCIP: Coprinus cinereus, IFO 8371, recombinant peroxidase (rCIP) available from Novo Nordisk A/S (protein, UniProt P28314 21-363, looked up)
Peroxidase: QGPGGGGSVTCPGGQSTSNSQCCVWFDVLDDLQTNFYQGSKCESPVRKILRIVFHDAIGFSPALTAAGQFGGGGADGSIIAHSNIELAFPANGGLTDTVEALRAVGINHGVSFGDLIQFATAVGMSNCPGSPRLEFLTGRSNSSQPSPPSLIPGPGNTVTAILDRMGDAGFSPDEVVDLLAAHSLASQEGLNSAIFRSPLDSTPQVFDTQFYIETLLKGTTQPGPSLGFAEELSPFPGEFRMRSDALLARDSRTACRWQSMTSSNEVMGQRYRAAMAKMSVLGFDRNALTDCSDVIPSAVSNNAAPVIPGGLTVDDIEVSCPSEPFPEIATASGPLPSLAPAP
For the molecule B1, the survivors is listed as 1.6*10^8 cfu/ml in test [1] and 2.6*10^7 cfu/ml in test [2].
